[ ]: non-standard residue; d: D form.
B1: LM609: mouse monoclonal antibody, anti-αvβ3 (antibody, V domains shown)
VH: EVQLEESGGGLVKPGGSLKLSCAASGFAFSSYDMSWVRQIPEKRLEWVAKVSSGGGSTYYLDTVQGRFTISRDNAKNTLYLQMSSLNSEDTAMYYCARHNYGSFAYWGQGTLVTVSA
VL: ELVMTQTPATLSVTPGDSVSLSCRASQSISNHLHWYQQKSHESPRLLIKYASQSISGIPSRFSGSGSGTDFTLSINSVETEDFGMYFCQQSNSWPHTFGGGTKLEIKRA

Legend:
[1] = system: VEGF-induced angiogenesis; experiment: chick CAM assay, VEGF-induced angiogenesis, intravenous inhibitors; format: in vivo; conditions: for inhibition of VEGF-induced CAM angiogenesis: VEGF 150 ng/ml, 75 μg antibody or peptide intravenously, 72 hours
Method: Ten day old chick embryos were obtained from McIntyre Poultry (Lakeside, Calif.) and incubated at 37C with 60% humidity. A small hole was made through the shell at the end of the egg directly over the air sac with the use of a small crafts drill (Dremel, Division of Emerson Electric Co., Racine, Wis.). A second hole was drilled on the broad side of the egg in a region devoid of embryonic blood vessels determined previously by candling the egg. […] A 1.0 centimeter (cm)×1.0 cm square window was cut through the shell over the dropped CAM with the use of a small model grinding wheel (Dremel). The small window allowed direct access to the underlying CAM.
Angiogenesis was induced by placing a 5 millimeter (mm)×5 mm Whatman filter disk (Whatman Filter paper No. 1) saturated with Hanks Balanced Salt Solution (HBSS, GIBCO, Grand Island, N.Y.) or HBSS containing preselected cytokines at a preselected concentration, i.e. one to test the effect on angiogenesis, on the CAM of a 10 day chick embryo in a region devoid of blood vessels and the windows were later sealed with tape. Angiogenesis was monitored by photomicroscopy after 72 hours. CAMs were snap frozen then 6 μm cryostat sections were fixed with acetone and stained by immunofluorescence as described in Example 2B and 2C with 10 μg/ml of selected anti-integrin antibodies, including those directed against αvβ5 as described in Example 1.
Angiogenesis was first induced on 10 day old chick embryos by application of growth factor-saturated filter disks. Specifically, in the first assays, angiogenesis was induced by exposure to either bFGF or VEGF, each at a concentration of 150 ng/ml.
For application of growth factors, during the candling procedures, prominent blood vessels were selected and marks were made on the egg shell to indicate their positions. The holes were drilled in the shell, the CAMs were dropped and growth factor-saturated filter papers were then separately placed on the CAMs as described above. The windows were sealed with sterile tape and the embryos were replaced in the incubator.
Twenty four hours later, a second small window was carefully cut on the lateral side of the egg shell directly over prominent blood vessels selected previously. The outer egg shell was carefully removed leaving the embryonic membranes intact. The shell membrane was made transparent with a small drop of mineral oil (Perkin-Elmer Corp, Norwalk, Conn.) which allowed the blood vessels to be visualized easily. Then, phosphate buffered saline (PBS), 75 μg of purified sterile anti-integrin antibodies or 75 μg of synthetic peptides (cyclic peptide RGDfV, SEQ ID NO 4 and control cyclic peptide RADfV, SEQ ID NO 5) in PBS were injected into blood vessels apparent on the growth factor-induced CAMs. The windows were sealed with tape and the embryos were allowed to incubate until 72 hours.
The filter discs and representative surrounding CAM tissues were photographed in a stereomicroscope (FIGS. 3A–3F and FIGS. 5A–5F) and the mean angiogenic index +/− the standard error was determined for 12 CAMs per condition (FIGS. 4A–4B and FIGS. 6A–6B). Angiogenesis was scored for each embryo in a double blind manner by analyzing the number and extent of branching of blood vessels within the area of each disc. The scores ranged from 1 (low) to 4 (high) and the angiogenesis index was determined by subtracting a background of 1 from all data.
In a further assay performed in the CAM model having VEGF-induced angiogenesis, 2 μg of peptides 85189 (SEQ ID NO 9) and the inert salt counterpart 121974 were separately intravenously injected as previously described. The effect of the peptides was assessed in comparison to that of control peptide 69601 (SEQ ID NO 5) and to untreated (labeled as NT) preparations.
The effect of the peptides of VEGF-induced angiogenesis is measured through a determination of the number of blood vessel branch points. […]

[2] = system: M21L human melanoma tumors; experiment: chimeric mouse:human (SCID) assay, M21L melanoma tumor growth; format: in vivo; conditions: for tumor volume (FIG. 9): 250 μg peptide intraperitoneally 3 times per week over 3 weeks; for tumor volume (FIG. 21): M21-L tumors, peptides compared with mAB LM609
Method: An in vivo chimeric mouse:human model was generated by replacing a portion of skin from a SCID mouse with human neonatal foreskin. The in vivo chimeric mouse:human model was prepared essentially as described in Yan, et al., J. Clin. Invest., 91:986–996 (1993). Briefly, a 2 cm^2 square area of skin was surgically removed from a SCID mouse (6–8 weeks of age) and replaced with a human foreskin. The mouse was anesthetized and the hair removed from a 5 cm^2 area on each side of the lateral abdominal region by shaving. Two circular graft beds of 2 cm^2 were prepared by removing the full thickness of skin down to the fascia. Full thickness human skin grafts of the same size derived from human neonatal foreskin were placed onto the wound beds and sutured into place. The graft was covered with a Band-Aid which was sutured to the skin. Micropore cloth tape was also applied to cover the wound.
After the skin graft was established, the human foreskin was inoculated with melanoma cells. The M21L human melanoma cell line was used to form the solid human tumors on the human skin grafts on the SCID mice. A single cell suspension of 2×10^6 M21L was injected intradermally into the human skin graft. The mice were then observed for 2 to 4 weeks to allow growth of measurable human tumors.
After a measurable tumor was established, either 250 μg of the peptide (in a volume of 100 μl) having SEQ ID NO 9 (cyclic RGD-containing peptide Arg-Gly-Asp-D-Phe-Asn-NMeVAL) or a control peptide, cyclo Arg-βAla-Asp-D-Phe-Val, were injected intraperitoneally into the mouse 3 times per week over 3 weeks. At the end of this time, the tumor was excised and analyzed by weight and histology.
In additional assays with the SCID mice model having measurable M21-L tumors, in a preliminary analysis, a dose response curve was performed for peptides 69601 (control) and 85189 (test) injected over a concentration range of 10 to 250 μg/ml. The mean volume and weight of resected tumors following treatment were determined with the results respectively shown in FIGS. 22A and 22B.
For analyzing peptide 85189 treatment effectiveness over a time course, two treatment regimens were evaluated in the same SCID tumor model. In one assay, treatment with either peptide 85189 or 69601 was initiated on day 6, with day 0 being the day of M21-L tumor injection of 3×10^6 cells subcutaneously into mouse skin, with intraperitoneal injections of 250 μg/ml peptide 85189 or control 69601 every other day until day 29. The other assay was identically performed with the exception that treatment was initiated on day 20. At the end of the assays, the tumors were resected and the mean tumor volume in mm^3 was determined. The data was plotted as this value +/− the standard error of the mean.

Molecule | inhibition of VEGF-induced CAM angiogenesis [1] | tumor volume (FIG. 9) [2] | tumor volume (FIG. 21) [2] | inhibition of VEGF-induced CAM angiogenesis (number of blood vessel branch points) ([1]; 2 μg peptide intravenously) | inhibition of tumor growth over a time course (mean tumor volume) ([2]; 250 μg/ml intraperitoneally every other day from day 6 or day 20 until day 29) | inhibition of M21-L tumor growth, dose response (volume and weight) ([2]; 10 to 250 μg/ml, preliminary analysis) | most effective dosage ([2]; range tested 10 to 250 μg/ml) [µg/mL] | effect on CAM angiogenesis induced by VEGF (angiogenesis index) ([1]; VEGF 1.0 μg/ml, antibodies 75 μg per embryo, calphostin C 100 nM)
cyclo(Arg-Ala-Asp-D-Phe-Val) (cyclo(RAD[dF]V); SMILES CC(C)[C@@H]1NC(=O)[C@@H](Cc2ccccc2)NC(=O)[C@H](CC(=O)O)NC(=O)[C@H](C)NC(=O)[C@H](CCCNC(=N)N)NC1=O) [peptide 69601, reference compound] | did not effect angiogenesis | greater than 300 mm^3 | approximately 360 mm^3 | – | – | – | – | –
cyclo(Arg-Gly-Asp-D-Phe-NMeVal) [peptide 85189] | – | approximately 25 mm^3 | below 25 mm^3 | completely inhibited angiogenesis | inhibited tumor growth | effective at inhibiting M21-L tumor growth | 250 | –
B1 | little effect on angiogenesis | – | approximately 60 mm^3 | – | – | – | – | failed to do so

Reference: patent US7053041B1, “Methods and compositions useful for inhibition of αvβ5mediated angiogenesis” (The Scripps Research Institute, priority 1996, dated 2006)
